Measurements: US5656721A, “Peptide derivatives” (Sandoz Ltd., priority 1986, dated 1997)
Like-named read-outs stand apart in the source and are kept apart here. Blank lines part the entries; values can stand above or below the molecule they belong to. Starred links: 1 amine or outer side, 2 acyl side, 3 side chain; linkers in the order of their positions; H or OH if unused. Positions of bridges follow the written chain, without caps; N, C: chain ends. Non-standard residues stand in square brackets, D forms with d. Residues, ends and D or L forms follow the SMILES beside them. X1 = O=C([C@@H](Cc1ccccc1)N(C[C@@]1(O)OC[C@@H](O)[C@@H](O[C@H]2O[C@H](CO)[C@@H](O)[C@H](O)[C@H]2O)[C@@H]1O)[*:1])[*:2]; X3 = O=C([C@@H](Cc1ccccc1)N(C[C@@]1(O)OC[C@@H](O)[C@@H](O)[C@@H]1O)[*:1])[*:2]; X2 = O=C([C@H](CS[*:3])N(C[C@@]1(O)OC[C@@H](O)[C@@H](O)[C@@H]1O)[*:1])[*:2]; Thr(ol) = C[C@@H](O)[C@H](N)CO

How the values were obtained:
GH level in the serum [1] = assay type: in vivo, rats
Description: Male rats are decapitated and blood is collected 1 hour after administering the GH secrection inhibiting compound in several logarithmically spaced doses. The GH level in the serum is determined means of RIA. In this test, these compounds of the invention are active at doses from about 0.02 to about 30 microgram/kg s.c.

[2] = Elimination through bile and urine in anaesthetized cannulated rats after s.c. administration; settings: male, rat, in vivo, sc, 10 microgram/kg
Description: Additionally the compounds of the invention advantageously are eliminated to a greater extent through the kidneys. This may be observed in standard tests.
Fasted Male rats (225-375 g) are administered orally with water (50 ml/kg). After 30 minutes the animals are anaesthetized with e.g. Inactin (100 mg/kg i.p.). The bile duct and bladder are cannulated. Both V. jugularis are exposed. In one vein an infusion of glucose 5% with ethanol 1% is administered (5 ml/hr) to stimulate diuresis. The other vein is used to take blood samples (0.5 ml) every hour over 4 hours.
The compound of the invention and the unmodified peptide is administered s.c. at a dose of from about 10 to about 1000 microgram/Kg. The concentration of the compound is determined in conventional manner e.g. by RIA.
In the above test for example the following results have been obtained with the example 2 compound and octreotide at a dose of 10 microgram/kg: […]

[3] = Bioavailability test, oral or intravenous administration, blood detection by radioimmunoassay; assay type: in vivo, dogs
From the text: The compounds of the invention may be compared with the unmodified peptides in standard bioavailability tests.
The compounds of the invention, for example, may be detected in the blood plasma for a longer period after administration than the unmodified peptides, as indicated in standard bioavailability experiments.
The compounds of the invention and the unmodified peptide may be administered to for example dogs in a single dose sufficient to produce a therapeutic effect by oral or intravenous administration.
Doses used are those which permit the peptide or a metabolite thereof to be detected in the blood. Detection may be effected in conventional manner, e.g. by radioimmunoassay.

[4] = system: GH (growth hormone) secretion; assay: GH concentration in blood of fasted rhesus monkeys after p.o. administration; assay type: in vivo; settings: for duration of GH lowering effect: p.o., example 2 at 0.1 mg/kg, lowering by at least 50 per cent
Description: Compounds of the invention which inhibit GH (growth hormone) secretion, especially the compounds of formula VIII, and more especially compounds of formula VIII a to f, and reduce the GH concentrations in the blood, may be tested as follows: Fasted rhesus monkeys (at least 5 monkeys) in primate chairs receive the compound of the invention in a piece of banana as vehicle. The compounds are administered at a dose of from about 0.1 mg/kg to about 10 mg/kg p.o. Blood is taken from the […] via a catheter. The GH concentration in the blood is measured by RIA (radio immunoassay).

gastric acid secretion = assay: Gastric acid secretion in fasted rats with stomach fistula; assay type: in vivo; settings: for duration of increased stomach pH / pH of the stomach juice reached: by stomach tube
Description: The activity of these compounds is observed in e.g. the following test: GH secretion inhibiting compounds of the invention are administered to fasted rats with fistula implanted in their stomach in doses from about 0.05 mg/kg to about 5 mg/kg by stomach tune. After 1 hour the fistula is opened. The stomach Juice is collected in 30 minute periods. The collected volumes are registered and the acid concentration determined.

[5] = Absorption on oral administration, plasma levels by RIA; assay type: in vivo, OFA rats; settings: OFA, rat, 10 mg/kg; for level at 0.25 h: 15 mins., read-out: Rat plasma levels following oral administration, 15 mins.; for level at 0.5 h: 30 mins., read-out: Rat plasma levels following oral administration, 30 mins.; for level at 1 h: 60 mins., read-out: Rat plasma levels following oral administration, 60 mins.
Description: Improved absorption on oral administration may be detected for the compounds of the invention as follows:
The compound of the invention and the unmodified analogue are administered orally to OFA rats (e.g. 10 mg/kg). After definite periods of time, e.g. 15, 30 and 60 minutes, blood samples are collected, These are analysed for their drug content by e.g. RIA.

GH level in the serum [6] = assay: GH-reducing activity in male rats having oestradiol implants; assay type: in vivo; settings: oestradiol-implanted male rats
Description: The GH-reducing activity of these compounds is also observed after oral application to male rats having oestradiol implants. In this test there are relatively small variations in the GH level, The test is carried out as follows:
A loop (length 50 mm .0. 3 mm) of silastic with 50 mg of oestradiol is implanted under ether anaesthesis under the dorsal skin of male rats which have a weight of ca. 300 g. At various times (1 to 6 months later), these animals are used repeatedly for tests. The test substance is administered either s.c. or orally.
Directly before, as well as at various times after administration of the substance, ca. 0.8 ml of blood is removed from the retro-orbital plexus. It is centrifuged and the GH level in the serum is determined by RIA.

[7] = system: calcium level in the blood; assay: Hypocalcemic activity, calcium level in the blood after i.v. administration; assay type: in vivo; settings: dogs, 5 μg/kg
From the text: The sugar derivatives of calcitonin and of calcitonin analogues or derivatives according to the invention, more especially the derivatives of formula X reduce the calcium plasma level. Moreover, they are functional antagonists of the parathormone, and effect a positive calcium balance in the bones. The hypocalcemic activity of the new compounds may be measured in known manner, e.g. according to the method of M. Azria et al., reported in the Calcitonin 1984 Symposium, 24th October, Milan and published as "Short Communication" in "Current Clinical Practice Series" No. 42, Excerpta Medica 1986, page 104. In this method, a Ca^2+ -ion selective electrode is used, so that the content of calcium ions in the blood of young rabbits or dogs may be continuously measured. The compounds are administered i.v. at a dosage of from about 0.1 to about 10 micrograms/kg, e.g. conforming to ca. 1 international unit per kg. […]
It has for example been determined that each of the compounds of examples 37 and 38 have a duration of action that is much longer than with the unmodified peptide, when administered i.v. to dogs (5 μg/kg).

[8] = s.c., male rats, 1 hour after administration

Molecule: C[C@@H](O)[C@@H]1NC(=O)[C@H](CCCCN)NC(=O)[C@@H](Cc2c[nH]c3ccccc23)NC(=O)[C@H](Cc2ccccc2)NC(=O)[C@@H](NC(=O)[C@@H](Cc2ccccc2)NC[C@@]2(O)OC[C@@H](O)[C@@H](O)[C@@H]2O)CSSC[C@@H](C(=O)N[C@H](CO)[C@@H](C)O)NC1=O [Example 1] (H-[X3]CF[dW]KTC[Thr(ol)]; disulfide 2-7)
ID50 (amount required to lower the GH content by 50%) (GH level in the serum [1]; rat, in vivo, sc): 0.045 microgram/kg

dose excreted ([2]; Percentage eliminated through Bile): 1.6%
dose excreted ([2]; Percentage eliminated through Urine): 36%
elimination half-life ([3]; intravenous administration): about 2,3 hours
blood concentration on oral administration compared with octreotide ([3]; oral administration, relative to octreotide): ten fold higher
absolute bioavailability on the basis of the AUC, relative to octreotide ([3]; orally and intravenously administered, relative to octreotide): 5 times
Molecule: C[C@@H](O)[C@@H]1NC(=O)[C@H](CCCCN)NC(=O)[C@@H](Cc2c[nH]c3ccccc23)NC(=O)[C@H](Cc2ccccc2)NC(=O)[C@@H](NC(=O)[C@@H](Cc2ccccc2)NC[C@@]2(O)OC[C@@H](O)[C@@H](O[C@H]3O[C@H](CO)[C@@H](O)[C@H](O)[C@H]3O)[C@@H]2O)CSSC[C@@H](C(=O)N[C@H](CO)[C@@H](C)O)NC1=O [Example 2, N^α -[α-glucosyl(1-4)-dioxyfructosyl)-SMS] (H-[X1]CF[dW]KTC[Thr(ol)]; disulfide 2-7)
ID50 (amount required to lower the GH content by 50%) (GH level in the serum [1]; [8]): 0.190 microgram/kg
lowering of GH secretion ([4]; 0.1 mg/kg p.o.): at least 50 per cent
duration of GH lowering effect [4]: > 10 h
duration of increased stomach pH (gastric acid secretion): 3,5 hours
pH of the stomach juice reached (gastric acid secretion): 6-8 pH
activity relative to cimetidine (gastric acid secretion; compared with cimetidine): at least 60 times

Molecule: C[C@@H](O)[C@@H]1NC(=O)[C@H](CCCCN)NC(=O)[C@@H](Cc2c[nH]c3ccccc23)NC(=O)[C@H](Cc2ccccc2)NC(=O)[C@@H](NC(=O)[C@@H](Cc2ccccc2)NC(=O)[C@H]2OC(O)[C@H](O)[C@@H](O)[C@@H]2O)CSSC[C@@H](C(=O)N[C@H](CO)[C@@H](C)O)NC1=O (stereo partly shown) [Example 21]
ID50 (amount required to lower the GH content by 50%) (GH level in the serum [1]; rat, in vivo, sc): 0.3 microgram/kg

level at 0.25 h [5]: 11.8 ng/mL
level at 0.5 h [5]: 6.98 ng/mL
level at 1 h [5]: 3.98 ng/mL
Molecule: CC[C@H](C)[C@@H]1NC(=O)[C@H](Cc2ccc(O)cc2)NC(=O)[C@@H](NC[C@@]2(O)OC[C@@H](O)[C@@H](O)[C@@H]2O)CSSC[C@@H](C(=O)N2CCC[C@H]2C(=O)N[C@@H](CC(C)C)C(=O)NCC(N)=O)NC(=O)[C@H](CC(N)=O)NC(=O)[C@H](CCC(N)=O)NC1=O [Example 44, [N-deoxy-fructosyl-Cys^1]-oxytocin] (H-[X2]YIQNCPLG-NH2; disulfide 1-6; C-terminus assumed)

Molecule: C[C@@H](O)[C@@H]1NC(=O)[C@H](CCCCN)NC(=O)[C@@H](Cc2c[nH]c3ccccc23)NC(=O)[C@H](Cc2ccccc2)NC(=O)[C@@H](NC(=O)[C@H](N)Cc2ccccc2)CSSC[C@@H](C(=O)N[C@H](CO)[C@@H](C)O)NC1=O [Octreotide, reference compound]
ID50 p.o. (GH level in the serum [6]): 1400 microgram/kg
dose excreted ([2]; rats, 10 microgram/kg s.c., read-out: Percentage eliminated through Bile): 22%
dose excreted ([2]; rats, 10 microgram/kg s.c., read-out: Percentage eliminated through Urine): 19%
half-life ([3]; dog, blood, intravenous administration, read-out: elimination half-life (converted)): ~30 min
duration of GH lowering effect [4]: 5 h
duration of increased stomach pH (gastric acid secretion): 2 hours
pH of the stomach juice reached (gastric acid secretion): 6-7 pH

Molecule: C[C@H](N)C(=O)NCC(=O)N[C@H]1CSSC[C@@H](C(=O)O)NC(=O)[C@H](CO)NC(=O)[C@H]([C@@H](C)O)NC(=O)[C@H](Cc2ccccc2)NC(=O)[C@H]([C@@H](C)O)NC(=O)[C@H](CCCCN)NC(=O)[C@H](Cc2c[nH]c3ccccc23)NC(=O)[C@H](Cc2ccccc2)NC(=O)[C@H](Cc2ccccc2)NC(=O)[C@H](CC(N)=O)NC(=O)[C@H](CCCCN)NC1=O [natural stomatostatin, reference compound]
ID50 (amount required to lower the GH content by 50%) (GH level in the serum [1]; [8]): 93 microgram/kg

level at 0.25 h [5]: 7.53 ng/mL
level at 0.5 h [5]: 3.6 ng/mL
level at 1 h [5]: 2.55 ng/mL
Molecule: CC[C@H](C)[C@@H]1NC(=O)[C@H](Cc2ccc(O)cc2)NC(=O)[C@@H](N)CSSC[C@@H](C(=O)N2CCC[C@H]2C(=O)N[C@@H](CC(C)C)C(=O)NCC(N)=O)NC(=O)[C@H](CC(N)=O)NC(=O)[C@H](CCC(N)=O)NC1=O [oxytocin, reference compound]

Molecule: N^α -isocaproyl-des(1-4)-[Ala^7,Nε-(1-deoxyfructosyl)-Lys^11,1 8 ]salmon Calcitonin [Example 37]
duration of action compared with the unmodified peptide [7]: much longer
reduction in the calcium level in the blood after 6 hours [7]: still as pronounced as after 3 hours

Molecule: N^α -isocaproyl-des-(1-4)-[Ala^7, N^κ -(α-D-glucosyl-(1-4)-deoxyfructosyl)-Lys^11,18 ]salmon Calcitonin [Example 38]
duration of action compared with the unmodified peptide [7]: much longer
reduction in the calcium level in the blood after 6 hours [7]: still as pronounced as after 3 hours
